From patent US8735384B2, “Amino heteroaryl compounds as beta-secretase modulators and methods of use” (Amgen Inc., priority 2010, dated 2014)

Legend:
[1] = target: BACE1 (Homo sapiens, UniProt P56817); test: In vitro enzymatic BACE FRET assay; assay type: biochemical; conditions: beta secretase enzyme 0.2 nM, FRET substrate 50 nM, pH 4.2; read-out: BACE1 FRET assay (IC50 class)
Procedure, shortened: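 Beta-secretase (0.2 nM) was pre-incubated 1 h with serially diluted inhibitor in 0.05 M acetate pH 4.2, 10% DMSO, 100 uM genapol. Then 50 nM quenched peptide FRET substrate was added for 1 h. The reaction was stopped with Tris to neutral pH and fluorescence read ([…]).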

[2] = tested on: Aβ40 in conditioned medium of cells stably expressing Amyloid Precursor Protein (APP); test: In vitro BACE cell-based assay (HEK cell assay), Aβ40 sandwich ELISA; conditions: Homo sapiens, HEK293, 24 h, inhibition of Aβ40, 24 h incubation, read-out: HEK cell assay (IC50 class)
Procedure, shortened: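 APP-stably expressing cells (40K/well) grown 24 h, then treated 24 h with 10-point doses from 100 μM or 10 μM top (0.1% DMSO). Secreted Aβ40 quantified by sandwich ELISA (pAb40 capture, biotinylated 6E10 detection, europium time-resolved fluorescence); IC50 from percent inhibition versus concentration.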

Sequence of BACE1 (P56817 46-501, species assumed): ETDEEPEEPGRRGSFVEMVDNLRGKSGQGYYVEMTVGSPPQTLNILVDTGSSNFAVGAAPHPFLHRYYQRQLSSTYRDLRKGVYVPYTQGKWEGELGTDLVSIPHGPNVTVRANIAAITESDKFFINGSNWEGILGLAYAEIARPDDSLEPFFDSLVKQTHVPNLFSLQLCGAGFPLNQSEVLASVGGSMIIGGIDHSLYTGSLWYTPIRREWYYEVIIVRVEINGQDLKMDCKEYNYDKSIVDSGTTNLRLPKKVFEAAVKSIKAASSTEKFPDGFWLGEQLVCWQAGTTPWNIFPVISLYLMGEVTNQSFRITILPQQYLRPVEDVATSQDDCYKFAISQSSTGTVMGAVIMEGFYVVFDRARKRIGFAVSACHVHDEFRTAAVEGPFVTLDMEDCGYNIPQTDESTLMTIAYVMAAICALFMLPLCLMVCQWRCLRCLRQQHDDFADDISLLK

SMILES: Nc1nc2ccc(-c3ccccc3C(=O)CC3CCCC3)cc2cc1N1CCOCC1 [Example 156, 1-(2-(2-amino-3-morpholinoquinolin-6-yl)phenyl)-2-cyclopentylethanone]
- IC50 [1]: < 100 nM
- IC50 [2]: 1010 to 5000 nM

SMILES: Cc1cccc(C(=O)c2ccccn2)c1-c1ccc2nc(N)c(N3CCOCC3)cc2c1 [Example 157, (2-(2-amino-3-morpholinoquinolin-6-yl)-3-methylphenyl)(pyridin-2-yl)methanone]
- IC50 [1]: < 100 nM
- IC50 [2]: 501 to 1000 nM

SMILES: Cc1cccc(C(=O)c2nccs2)c1-c1ccc2nc(N)c(N3CCOCC3)cc2c1 [Example 158, (2-(2-amino-3-morpholinoquinolin-6-yl)-3-methylphenyl)(thiazol-2-yl)methanone]
- IC50 [1]: 100 to 500 nM
- IC50 [2]: 1010 to 5000 nM

SMILES: Cc1cccc(C(=O)c2ncccc2Cl)c1-c1ccc2nc(N)c(N3CCOCC3)cc2c1 [Example 159, (2-(2-amino-3-morpholinoquinolin-6-yl)-3-methylphenyl)(3-chloropyridin-2-yl)methanone]
- IC50 [1]: < 100 nM
- IC50 [2]: 501 to 1000 nM

SMILES: CC(C)(C)C#Cc1ccccc1-c1ccc2nc(N)c(N3CCOCC3)cc2c1 [Example 160, 6-(2-(3,3-dimethylbut-1-ynyl)phenyl)-3-morpholinoquinolin-2-amine]
- IC50 [1]: 501 to 1000 nM
- IC50 [2]: > 5000 nM

SMILES: Nc1nc2ccc(-c3c(C#Cc4ccccc4)cccc3C(=O)N3CCCC3)cc2cc1N1CCOCC1 [Example 161, (2-(2-amino-3-morpholinoquinolin-6-yl)-3-(phenylethynyl)phenyl)(pyrrolidin-1-yl)methanone]
- IC50 [1]: < 100 nM
- IC50 [2]: 501 to 1000 nM

SMILES: Nc1nc2ccc(-c3c(CCc4ccccc4)cccc3C(=O)N3CCCC3)cc2cc1N1CCOCC1 [Example 162, (2-(2-amino-3-morpholinoquinolin-6-yl)-3-phenethylphenyl)(pyrrolidin-1-yl)methanone]
- IC50 [1]: < 100 nM
- IC50 [2]: < 100 nM

SMILES: CC(C)(C)CCc1cccc(C(=O)N2CCOCC2)c1-c1ccc2nc(N)c(N3CCOCC3)cc2c1 [Example 163, (2-(2-amino-3-morpholinoquinolin-6-yl)-3-(3,3-dimethylbutyl)phenyl)(morpholino)methanone]
- IC50 [1]: < 100 nM
- IC50 [2]: < 100 nM

SMILES: CC(C)(C)CCc1cccc(C(=O)N2CCC2)c1-c1ccc2nc(N)c(N3CCOCC3)cc2c1 [Example 164, (2-(2-amino-3-morpholinoquinolin-6-yl)-3-(3,3-dimethylbutyl)phenyl)(azetidin-1-yl)methanone]
- IC50 [1]: < 100 nM
- IC50 [2]: < 100 nM

SMILES: CC(C)(C)CCc1cccc(C(=O)N2CCCC2)c1-c1ccc2nc(N)c(N3C[C@@H]4C[C@H]3CO4)cc2c1 [Example 165, (2-(2-amino-3-((1S,4S)-2-oxa-5-azabicyclo[2.2.1]heptan-5-yl)quinolin-6-yl)-3-(3,3-dimethylbutyl)phenyl)(pyrrolidin-1-yl)methanone]
- IC50 [1]: < 100 nM
- IC50 [2]: < 100 nM

SMILES: CC(C)(C)CCc1cccc(C(=O)N2CC[C@H](F)C2)c1-c1ccc2nc(N)c(N3CCOCC3)cc2c1 [Example 166, (S)-(2-(2-amino-3-morpholinoquinolin-6-yl)-3-(3,3-dimethylbutyl)phenyl)(3-fluoropyrrolidin-1-yl)methanone]
- IC50 [1]: < 100 nM
- IC50 [2]: < 100 nM

SMILES: Nc1nc2ccc(-c3c(C#CC4CCCCC4)cccc3C(=O)N3CCCC3)cc2cc1N1CCOCC1 [Example 167, (2-(2-amino-3-morpholinoquinolin-6-yl)-3-(cyclohexylethynyl)phenyl)(pyrrolidin-1-yl)methanone]
- IC50 [1]: < 100 nM
- IC50 [2]: < 100 nM

SMILES: Nc1nc2ccc(-c3c(CCC4CCCCC4)cccc3C(=O)N3CCCC3)cc2cc1N1CCOCC1 [Example 168, (2-(2-amino-3-morpholinoquinolin-6-yl)-3-(2-cyclohexylethyl)phenyl)(pyrrolidin-1-yl)methanone]
- IC50 [1]: < 100 nM
- IC50 [2]: < 100 nM

SMILES: Cc1cccc(OCc2ccccc2)c1-c1ccc2nc(N)c(N3CCOCC3)cc2c1 [Example 169, 6-(2-(benzyloxy)-6-methylphenyl)-3-morpholinoquinolin-2-amine]
- IC50 [1]: < 100 nM
- IC50 [2]: > 5000 nM

SMILES: Cc1cccc(OCCOC(C)C)c1-c1ccc2nc(N)c(N3CCOCC3)cc2c1 [Example 170, 6-(2-(2-isopropoxyethoxy)-6-methylphenyl)-3-morpholinoquinolin-2-amine]
- IC50 [1]: < 100 nM
- IC50 [2]: 1010 to 5000 nM

SMILES: Cc1cccc(Oc2ccccc2)c1-c1ccc2nc(N)c(N3CCOCC3)cc2c1 [Example 171, 6-(2-methyl-6-phenoxyphenyl)-3-morpholinoquinolin-2-amine]
- IC50 [1]: < 100 nM
- IC50 [2]: > 5000 nM

SMILES: Cc1cccc(CCC(C)(C)C)c1-c1ccc2nc(N)c(N3CCOCC3)cc2c1 [Example 172, 6-(2-(3,3-dimethylbutyl)-6-methylphenyl)-3-morpholinoquinolin-2-amine]
- IC50 [1]: < 100 nM
- IC50 [2]: 1010 to 5000 nM

SMILES: Cc1cccc(C(=O)c2cccc(C)c2-c2ccc3nc(N)c(N4CCOCC4)cc3c2)c1 [Example 173, (2-(2-amino-3-morpholinoquinolin-6-yl)-3-methylphenyl)(m-tolyl)methanone]
- IC50 [1]: < 100 nM
- IC50 [2]: 1010 to 5000 nM

SMILES: Cc1cccc(C(=O)c2cccc(Cl)c2)c1-c1ccc2nc(N)c(N3CCOCC3)cc2c1 [Example 174, (2-(2-amino-3-morpholinoquinolin-6-yl)-3-methylphenyl)(3-chlorophenyl)methanone]
- IC50 [1]: < 100 nM
- IC50 [2]: 1010 to 5000 nM

SMILES: COc1ccc(C(=O)c2cccc(C)c2-c2ccc3nc(N)c(N4CCOCC4)cc3c2)cc1 [Example 175, (2-(2-amino-3-morpholinoquinolin-6-yl)-3-methylphenyl)(4-methoxyphenyl)methanone]
- IC50 [1]: < 100 nM
- IC50 [2]: 1010 to 5000 nM

SMILES: Cc1cccc(C(=O)c2ccc(Cl)cc2)c1-c1ccc2nc(N)c(N3CCOCC3)cc2c1 [Example 176, (2-(2-amino-3-morpholinoquinolin-6-yl)-3-methylphenyl)(4-chlorophenyl)methanone]
- IC50 [1]: < 100 nM
- IC50 [2]: 1010 to 5000 nM

SMILES: COc1cccc(C(=O)c2cccc(C)c2-c2ccc3nc(N)c(N4CCOCC4)cc3c2)c1 [Example 177, (2-(2-amino-3-morpholinoquinolin-6-yl)-3-methylphenyl)(3-methoxyphenyl)methanone]
- IC50 [1]: 100 to 500 nM
- IC50 [2]: 1010 to 5000 nM

SMILES: Cc1ccc(C(=O)c2cccc(C)c2-c2ccc3nc(N)c(N4CCOCC4)cc3c2)cc1 [Example 178, (2-(2-amino-3-morpholinoquinolin-6-yl)-3-methylphenyl)(p-tolyl)methanone]
- IC50 [1]: < 100 nM
- IC50 [2]: 1010 to 5000 nM

SMILES: CCCC(=O)c1cccc(C)c1-c1ccc2nc(N)c(N3CCOCC3)cc2c1 [Example 179, 1-(2-(2-amino-3-morpholinoquinolin-6-yl)-3-methylphenyl)butan-1-one]
- IC50 [1]: 100 to 500 nM
- IC50 [2]: 1010 to 5000 nM

SMILES: CCCCC(=O)c1cccc(C)c1-c1ccc2nc(N)c(N3CCOCC3)cc2c1 [Example 180, 1-(2-(2-amino-3-morpholinoquinolin-6-yl)-3-methylphenyl)pentan-1-one]
- IC50 [1]: < 100 nM
- IC50 [2]: 1010 to 5000 nM

SMILES: Cc1cccc(C(=O)C2CCCCC2)c1-c1ccc2nc(N)c(N3CCOCC3)cc2c1 [Example 181, (2-(2-amino-3-morpholinoquinolin-6-yl)-3-methylphenyl)(cyclohexyl)methanone]
- IC50 [1]: < 100 nM
- IC50 [2]: 1010 to 5000 nM

SMILES: Cc1cccc(C(=O)CC(C)C)c1-c1ccc2nc(N)c(N3CCOCC3)cc2c1 [Example 182, 1-(2-(2-amino-3-morpholinoquinolin-6-yl)-3-methylphenyl)-3-methylbutan-1-one]
- IC50 [1]: < 100 nM
- IC50 [2]: 501 to 1000 nM
